Assay results reported in PMC2774722 (Clinical cancer research : an official journal of the …, 2009).
Several values for one entry are separate records, joined by “and”; a condition that tells them apart may be missing. Equal entries are not always repeated. Where two headings read alike, the source gives them in different places.

Tests used:
ABCC2 [1] = target: T1, ABCC2 (Homo sapiens, UniProt Q92887); experiment: Inhibition of ABCC2-mediated docetaxel efflux; format: cell-based; conditions: for Inhibition of docetaxel efflux: 20 μM sorafenib or sunitinib, or 50 μM MK571, 5 μM docetaxel, 4 h, cells overexpressing ABCC2
ABCC4 [2] = target: T2, ABCC4 (Homo sapiens, UniProt O15439); experiment: Inhibition of ABCC4-mediated PMEA efflux in Saos-2 cells; format: cell-based; conditions: for Inhibition of PMEA efflux: 20 μM sorafenib or sunitinib, or 50 μM MK571, 4 h, cells overexpressing ABCC4
T2 sequence (O15439 1-1325): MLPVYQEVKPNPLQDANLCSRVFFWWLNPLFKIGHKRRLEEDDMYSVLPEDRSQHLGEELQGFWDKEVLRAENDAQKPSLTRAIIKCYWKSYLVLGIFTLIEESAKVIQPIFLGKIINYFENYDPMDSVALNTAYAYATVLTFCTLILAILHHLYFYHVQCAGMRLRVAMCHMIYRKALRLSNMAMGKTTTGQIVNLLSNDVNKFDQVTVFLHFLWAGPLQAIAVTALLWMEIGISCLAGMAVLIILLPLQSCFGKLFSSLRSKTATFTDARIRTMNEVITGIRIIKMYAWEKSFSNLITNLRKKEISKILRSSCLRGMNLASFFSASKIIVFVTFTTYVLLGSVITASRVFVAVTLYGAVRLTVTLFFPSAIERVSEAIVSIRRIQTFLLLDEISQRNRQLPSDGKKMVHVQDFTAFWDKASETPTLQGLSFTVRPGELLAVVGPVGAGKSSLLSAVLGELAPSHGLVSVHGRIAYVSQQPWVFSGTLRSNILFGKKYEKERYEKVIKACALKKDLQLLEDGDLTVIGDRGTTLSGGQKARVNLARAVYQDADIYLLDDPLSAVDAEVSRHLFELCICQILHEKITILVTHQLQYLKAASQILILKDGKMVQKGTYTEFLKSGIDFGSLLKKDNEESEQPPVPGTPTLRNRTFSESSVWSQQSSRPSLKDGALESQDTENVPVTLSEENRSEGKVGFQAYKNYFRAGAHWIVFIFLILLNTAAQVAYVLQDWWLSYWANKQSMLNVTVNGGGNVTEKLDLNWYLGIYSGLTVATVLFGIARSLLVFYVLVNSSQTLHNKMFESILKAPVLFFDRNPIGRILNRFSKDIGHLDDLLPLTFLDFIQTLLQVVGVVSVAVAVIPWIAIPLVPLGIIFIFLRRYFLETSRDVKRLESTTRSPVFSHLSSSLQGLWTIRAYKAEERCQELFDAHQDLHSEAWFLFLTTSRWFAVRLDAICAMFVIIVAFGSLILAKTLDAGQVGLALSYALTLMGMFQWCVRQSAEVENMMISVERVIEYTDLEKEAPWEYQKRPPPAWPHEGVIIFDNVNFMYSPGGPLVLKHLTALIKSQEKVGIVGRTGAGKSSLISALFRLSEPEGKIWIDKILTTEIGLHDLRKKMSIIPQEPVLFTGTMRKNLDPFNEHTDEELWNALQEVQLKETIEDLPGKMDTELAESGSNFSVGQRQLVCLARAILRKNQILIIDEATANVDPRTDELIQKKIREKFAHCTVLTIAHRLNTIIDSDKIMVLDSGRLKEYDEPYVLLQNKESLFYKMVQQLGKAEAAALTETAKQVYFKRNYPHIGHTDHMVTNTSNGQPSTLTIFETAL

[3] = ref [39], cited from earlier work
[4] = wild-type murine models, cited from earlier work
Abcb1 [5] = conditions: mice lacking ABCB1; ref [42]; cited from earlier work
CYP3a = conditions: CYP3a-/- knockout mice; ref [43]; cited from earlier work
ABCB1 or ABCC2 = conditions: mice lacking one or both transporters (ABCB1, ABCC2); ref [40]; cited from earlier work
Abcb1 [6] = conditions: Abcb1 knockout mice; ref [6], [44]; cited from earlier work
Abcb1 and Abcg2 = conditions: mice lacking both Abcb1 and Abcg2; ref [6], [44]; cited from earlier work
[7] = Brain penetration and brain concentration in mice; format: in vivo
ABCC4 [8] = target: T2, ABCC4; experiment: Accumulation in Saos-2 cells overexpressing ABCC4; format: in vitro ADME; conditions: 1 μM, 4 h
ABCB1 [9] = target: T3, ABCB1 (Homo sapiens, UniProt P08183); experiment: Inhibition of calcein-AM efflux in LLC-PK1 cells expressing ABCB1; format: cell-based
Abcb1 [10] = conditions: single oral dose, sorafenib 40 mg/kg or sunitinib 20 mg/kg
ABCB1 [11] = target: T3, ABCB1; experiment: Transcellular transport in LLC-PK1 cells expressing ABCB1; format: in vitro ADME; conditions: 10 μM, LLC-PK1 cells overexpressing ABCB1
ABCC2 [12] = target: T1, ABCC2; experiment: Vanadate sensitive ATPase assay of ABCC2 in membrane vesicles; format: biochemical; conditions: activation test, 0.14-300 μM, 10 min, concentration dependent
Abcb1 [13] = conditions: brain concentration at 4 h / plasma AUC0-4h; oral sorafenib 40 mg/kg or sunitinib 20 mg/kg
ABCG2 [14] = target: ABCG2 (Homo sapiens, UniProt Q9UNQ0); conditions: 1 μM, 4 h, Saos-2 cells
[15] = test system: acute myelogenous leukemia; conditions: sorafenib with cytarabine/idarubicin, cited from earlier work
[16] = test system: OATP1A2, OATP1B1, OATP1B3, OCT1, OAT2, OCTN1 and OCTN2; conditions: oocytes or HEK293 cells; sorafenib 0.35-1.5 μM or sunitinib 0.15-0.45 μM, 1 h
ABCC2 [17] = target: T1, ABCC2; experiment: Accumulation in MDCKII cells overexpressing ABCC2; format: in vitro ADME; conditions: 1 μM, 4 h
ABCB1 [18] = conditions: ref [38]; cited from earlier work
ABCG2 [19] = conditions: ref [38]; cited from earlier work
OCTN2 = target: T4, OCTN2 (Homo sapiens, UniProt O76082); experiment: Uptake in HEK293 cells overexpressing OCTN2; format: in vitro ADME; conditions: HEK293 cells expressing OCTN2, 1 h
T4 sequence (O76082 1-557): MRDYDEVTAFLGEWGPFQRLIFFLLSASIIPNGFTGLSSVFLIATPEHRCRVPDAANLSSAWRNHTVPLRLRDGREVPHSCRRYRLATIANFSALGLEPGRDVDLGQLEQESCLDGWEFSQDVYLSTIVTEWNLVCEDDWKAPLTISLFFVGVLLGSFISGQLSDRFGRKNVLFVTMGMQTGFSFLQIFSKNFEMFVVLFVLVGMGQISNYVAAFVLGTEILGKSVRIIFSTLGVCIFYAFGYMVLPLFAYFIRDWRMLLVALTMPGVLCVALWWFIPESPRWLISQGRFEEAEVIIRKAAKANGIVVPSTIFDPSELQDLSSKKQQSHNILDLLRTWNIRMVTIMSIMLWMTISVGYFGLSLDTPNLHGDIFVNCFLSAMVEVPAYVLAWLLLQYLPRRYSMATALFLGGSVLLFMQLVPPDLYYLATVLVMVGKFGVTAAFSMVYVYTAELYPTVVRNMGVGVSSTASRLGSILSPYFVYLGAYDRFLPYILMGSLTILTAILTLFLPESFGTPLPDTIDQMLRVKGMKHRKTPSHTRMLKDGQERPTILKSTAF

[20] = 38 patients with newly diagnosed AML

T1 sequence (Q92887 whole entry): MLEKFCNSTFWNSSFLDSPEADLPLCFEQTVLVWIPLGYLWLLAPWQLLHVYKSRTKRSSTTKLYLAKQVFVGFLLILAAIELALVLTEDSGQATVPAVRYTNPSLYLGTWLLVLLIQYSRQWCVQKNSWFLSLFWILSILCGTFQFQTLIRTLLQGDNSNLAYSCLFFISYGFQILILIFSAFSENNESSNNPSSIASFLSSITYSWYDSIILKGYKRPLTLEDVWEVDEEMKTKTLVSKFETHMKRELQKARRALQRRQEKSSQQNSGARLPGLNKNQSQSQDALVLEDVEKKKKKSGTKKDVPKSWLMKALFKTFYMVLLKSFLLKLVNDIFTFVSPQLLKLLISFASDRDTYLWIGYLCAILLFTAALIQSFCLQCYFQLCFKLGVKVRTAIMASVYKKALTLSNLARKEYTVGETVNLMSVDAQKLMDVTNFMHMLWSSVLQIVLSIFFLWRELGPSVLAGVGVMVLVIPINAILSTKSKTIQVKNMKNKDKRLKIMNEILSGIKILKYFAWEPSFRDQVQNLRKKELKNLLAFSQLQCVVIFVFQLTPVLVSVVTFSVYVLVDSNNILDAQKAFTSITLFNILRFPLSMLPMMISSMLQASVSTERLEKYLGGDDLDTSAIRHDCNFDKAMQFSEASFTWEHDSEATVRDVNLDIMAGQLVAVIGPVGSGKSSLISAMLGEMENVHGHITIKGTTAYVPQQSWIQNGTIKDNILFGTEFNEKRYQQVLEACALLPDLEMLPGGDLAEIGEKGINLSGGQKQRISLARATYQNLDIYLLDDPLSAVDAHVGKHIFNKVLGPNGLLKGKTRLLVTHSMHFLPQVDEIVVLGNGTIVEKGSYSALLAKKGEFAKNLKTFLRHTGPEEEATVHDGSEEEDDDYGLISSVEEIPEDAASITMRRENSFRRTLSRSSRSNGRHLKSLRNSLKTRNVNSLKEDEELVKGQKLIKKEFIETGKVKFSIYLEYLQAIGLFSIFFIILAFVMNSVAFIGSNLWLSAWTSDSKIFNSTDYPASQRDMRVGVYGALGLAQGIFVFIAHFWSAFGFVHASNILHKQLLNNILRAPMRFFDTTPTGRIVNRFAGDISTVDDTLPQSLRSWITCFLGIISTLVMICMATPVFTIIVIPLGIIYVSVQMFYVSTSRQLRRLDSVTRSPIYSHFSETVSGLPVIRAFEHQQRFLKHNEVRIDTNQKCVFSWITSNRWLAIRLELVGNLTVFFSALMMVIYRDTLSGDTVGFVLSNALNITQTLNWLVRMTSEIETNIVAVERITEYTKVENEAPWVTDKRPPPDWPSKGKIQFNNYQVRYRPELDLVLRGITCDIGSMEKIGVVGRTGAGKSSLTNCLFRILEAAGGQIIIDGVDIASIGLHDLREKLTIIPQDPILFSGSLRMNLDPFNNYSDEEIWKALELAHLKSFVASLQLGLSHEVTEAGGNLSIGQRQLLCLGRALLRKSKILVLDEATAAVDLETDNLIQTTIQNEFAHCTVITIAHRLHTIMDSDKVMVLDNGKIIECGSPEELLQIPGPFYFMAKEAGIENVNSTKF
T3 sequence (P08183 whole entry): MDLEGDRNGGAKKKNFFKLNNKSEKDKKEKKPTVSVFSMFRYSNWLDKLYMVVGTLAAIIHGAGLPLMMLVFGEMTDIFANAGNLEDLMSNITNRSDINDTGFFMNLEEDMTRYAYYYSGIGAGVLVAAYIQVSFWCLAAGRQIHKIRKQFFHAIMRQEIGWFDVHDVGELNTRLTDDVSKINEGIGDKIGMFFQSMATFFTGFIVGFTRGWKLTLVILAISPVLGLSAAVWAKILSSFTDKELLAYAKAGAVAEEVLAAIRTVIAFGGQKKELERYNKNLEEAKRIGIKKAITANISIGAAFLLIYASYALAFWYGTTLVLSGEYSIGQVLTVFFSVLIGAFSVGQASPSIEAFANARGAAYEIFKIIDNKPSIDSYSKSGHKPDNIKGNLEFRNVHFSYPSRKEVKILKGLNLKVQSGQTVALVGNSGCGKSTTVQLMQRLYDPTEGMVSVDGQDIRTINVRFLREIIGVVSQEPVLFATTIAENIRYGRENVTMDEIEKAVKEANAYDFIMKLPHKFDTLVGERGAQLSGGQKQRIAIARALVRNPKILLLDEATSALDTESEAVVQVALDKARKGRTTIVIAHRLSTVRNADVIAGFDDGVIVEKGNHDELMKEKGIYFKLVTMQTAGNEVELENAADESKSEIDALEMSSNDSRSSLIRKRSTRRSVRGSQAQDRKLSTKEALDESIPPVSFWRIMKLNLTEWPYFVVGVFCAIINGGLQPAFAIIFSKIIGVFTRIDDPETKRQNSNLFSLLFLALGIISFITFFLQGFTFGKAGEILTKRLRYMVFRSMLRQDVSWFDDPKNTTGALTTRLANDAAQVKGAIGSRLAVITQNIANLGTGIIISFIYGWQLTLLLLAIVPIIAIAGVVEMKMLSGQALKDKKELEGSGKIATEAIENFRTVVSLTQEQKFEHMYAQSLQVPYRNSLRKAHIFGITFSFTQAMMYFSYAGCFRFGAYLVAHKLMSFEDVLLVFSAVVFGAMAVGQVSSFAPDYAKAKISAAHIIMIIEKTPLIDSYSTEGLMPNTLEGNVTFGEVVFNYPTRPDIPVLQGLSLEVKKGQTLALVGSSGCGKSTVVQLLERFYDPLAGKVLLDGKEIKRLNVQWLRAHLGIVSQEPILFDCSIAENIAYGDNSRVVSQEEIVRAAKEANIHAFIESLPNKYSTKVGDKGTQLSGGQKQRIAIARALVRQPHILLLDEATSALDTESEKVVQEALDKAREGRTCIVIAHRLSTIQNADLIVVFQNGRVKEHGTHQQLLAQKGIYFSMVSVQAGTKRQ
Chain of ABCG2 (Homo sapiens, UniProt Q9UNQ0) (Q9UNQ0 whole entry): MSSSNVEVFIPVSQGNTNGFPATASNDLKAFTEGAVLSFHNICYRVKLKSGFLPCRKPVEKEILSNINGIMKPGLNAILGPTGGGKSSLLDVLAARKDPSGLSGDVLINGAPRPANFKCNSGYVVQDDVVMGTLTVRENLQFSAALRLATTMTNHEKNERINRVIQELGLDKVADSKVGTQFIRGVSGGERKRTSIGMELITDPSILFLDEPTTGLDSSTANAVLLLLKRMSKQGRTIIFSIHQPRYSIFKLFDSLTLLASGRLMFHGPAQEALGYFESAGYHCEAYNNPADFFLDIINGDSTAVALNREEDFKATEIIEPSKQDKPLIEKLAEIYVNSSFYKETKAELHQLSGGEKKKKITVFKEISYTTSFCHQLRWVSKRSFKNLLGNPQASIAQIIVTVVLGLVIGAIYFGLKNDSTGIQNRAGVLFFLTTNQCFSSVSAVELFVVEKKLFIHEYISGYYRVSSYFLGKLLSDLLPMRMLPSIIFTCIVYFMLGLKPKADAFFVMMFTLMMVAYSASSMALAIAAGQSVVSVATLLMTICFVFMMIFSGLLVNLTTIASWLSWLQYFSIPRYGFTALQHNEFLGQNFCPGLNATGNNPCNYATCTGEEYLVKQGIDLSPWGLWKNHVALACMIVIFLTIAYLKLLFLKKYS

## CN(C)C(=O)CCSC(SCCC(=O)O)c1cccc(/C=C/c2ccc3ccc(Cl)cc3n2)c1 (stereo not drawn) [MK571]
ABCC2 [1]
  Inhibition of docetaxel efflux: approximately 90%
ABCC4 [2]
  Inhibition of PMEA efflux: ~100%

## CCc1c2c(nc3ccc(O)cc13)-c1cc3c(c(=O)n1C2)COC(=O)[C@]3(O)CC [SN-38]
[3]
  Change in plasma exposure when co-administered with sorafenib: minimal to no increases

## Cc1nc(Nc2ncc(C(=O)Nc3c(C)cccc3Cl)s2)cc(N2CCN(CCO)CC2)n1 [dasatinib]
[4]; ref [45]
  Brain penetration: 3-8%

## CC(=O)O[C@@]12CO[C@@H]1C[C@H](O)[C@@]1(C)C(=O)[C@H](O)C3=C(C)[C@@H](OC(=O)[C@H](O)[C@@H](NC(=O)OC(C)(C)C)c4ccccc4)C[C@@](O)([C@@H](OC(=O)c4ccccc4)[C@H]21)C3(C)C [docetaxel]
Abcb1 [5]
  Plasma exposure compared to wild-type mice: unchanged
CYP3a
  Exposure compared to wild-type counterparts: significanty increased

## COc1cccc2c1C(=O)c1c(O)c3c(c(O)c1C2=O)C[C@@](O)(C(=O)CO)C[C@@H]3O[C@H]1C[C@H](N)[C@H](O)[C@H](C)O1 [doxorubicin]
ABCB1 or ABCC2
  Plasma exposure compared to wild-type mice: unaltered
[3]; phase I trial
  Increase in plasma exposure in combination with sorafenib: 20-30%

## Cc1ccc(NC(=O)c2ccc(CN3CCN(C)CC3)cc2)cc1Nc1nccc(-c2cccnc2)n1 [imatinib]
[4]; ref [6], [44]
  Brain penetration: 2-10%
Abcb1 [6]
  Increase in brain penetration compared to wild-type mice: 3.6 fold
Abcb1 and Abcg2
  Increase in brain penetration compared to wild-type mice: 12.6 fold

## CCc1c2c(nc3ccc(OC(=O)N4CCC(N5CCCCC5)CC4)cc13)-c1cc3c(c(=O)n1C2)COC(=O)[C@]3(O)CC [irinotecan]
[3]
  Change in plasma exposure when co-administered with sorafenib: minimal to no increases

## CNC(=O)c1cc(Oc2ccc(NC(=O)Nc3ccc(Cl)c(C(F)(F)F)c3)cc2)ccn1 [sorafenib]
ABCC2 [1]; read-out: Inhibition of docetaxel efflux
  inhibition at 20 µM: ~50%
ABCC4 [2]; SAOS-2, read-out: Inhibition of PMEA efflux
  inhibition at 20 µM: ~70%
[7]; FVB, mouse, brain, po, 40 mg/kg
  concentration at 4 h: ~300 ng/mL and 645 nM
[7]; wild-type mice, brain concentration at 4 h / plasma AUC0-4h, oral sorafenib 40 mg/kg or sunitinib 20 mg/kg
  Brain penetration: 3%
ABCC4 [8]
  Transport by ABCC4: not transported
ABCB1 [9]
  IC50: 16.6 µM
Abcb1 [10]
  Plasma AUC0-4h, wild type versus Abcb1 knockout mice: not significantly different
ABCB1 [11]
  Transport by ABCB1: not transported
ABCC2 [12]
  Effect on baseline ATPase activity of ABCC2: inhibited
Abcb1 [13]
  Increase in brain penetration in knockout animals versus controls: 1.9 fold
ABCG2 [14]
  Transport by ABCG2: not transported
[15]; [20]
  Overall response rate: 83%
  Patients achieving a complete response: 70%
[15]; at 9 months follow-up
  Probability of survival: 82%
  Remission duration: 72%
[16]
  Transport (uptake) by solute carriers compared to control: none of the transporters tested facilitated
ABCC2 [17]
  Transport by ABCC2: not transported

## CCN(CC)CCNC(=O)c1c(C)[nH]c(/C=C2\C(=O)Nc3ccc(F)cc32)c1C [sunitinib]
ABCC2 [1]
  Inhibition of docetaxel efflux: ~80%
ABCC4 [2]
  Inhibition of PMEA efflux: ~80%
ABCB1 [18]
  Reversal of ABCB1-mediated resistance to romidepsin: partially reverse
Abcb1 [10]
  Plasma AUC0-4h, wild type versus Abcb1 knockout mice: not significantly different
ABCB1 [11]
  Transport by ABCB1: substantially reduced
ABCG2 [19]
  Reversal of topotecan resistance mediated by ABCG2: completely reverse
Abcb1 [13]
  Increase in brain penetration in knockout animals versus controls: 2.9 fold
ABCG2 [14]
  Transport by ABCG2: not transported
OCTN2
  Transport over control by OCTN2: 130%
[16]
  Transport (uptake) by solute carriers compared to control: none of the transporters tested facilitated
